Counter-ions that a name gives are not always drawn. Bridge positions count the residues as written; N and C are the ends. Square brackets hold non-standard residues; d marks the D form. Peptide text beside a SMILES is read from it. * marks the point of attachment. X1 = CC[C@H](C)CCCCC(=O)*; Dab = NCC[C@H](N)C(=O)O
Legend:
[1] = PMB plasma protein binding by ultrafiltration (Centrifree) of plasma from infected mice; type: in vitro ADME; conditions: mouse plasma
Description: The PK of PMB was determined in neutropenic mice infected with the bacterial inoculum size of 10^6 CFU/thigh (n = 56). Mice were anesthetized by isoflurane (AbbVie, Rungis, France) inhalation (3%) for 5 min at each sampling time. Blood samples were collected by intracardiac puncture into heparinized tubes up to 24 h after PMB administration for a total of 7 time points per dose level (n = 3 animals per time point). Plasma was separated from the whole blood after centrifugation at 4,000 rpm for 10 min at 4°C and divided into two samples. The first sample was used to determine total PMB concentrations and the second one (0.15 ml) was ultrafiltered (4000 rpm for 30 min at room temperature) using Centrifree® ultrafiltration devices from Millipore (Merck KGaA) to determine unbound PMB concentrations and consequently protein binding. The non-specific binding of PMB to the membrane of the Centrifree® ultrafiltration devices ([Sader et al., 2012]) was determined by ultrafiltration of PMB solutions in phosphate buffer (pH7.2) at concentrations ranging from 0.2 to 7.5 mg/L and was used to correct ultrafiltrate concentrations. Plasma samples and ultrafiltrates were stored at −20°C until further analysis. Total and unbound PMB concentrations were determined by a liquid chromatography tandem mass spectrometry (LS-MS/MS) method (Supplemental Material).
A saturable non-specific binding (NSB) of PMB to the ultrafiltration membrane, translating to a non-linear decrease of PMB NSB when PMB concentration increased, was observed (Supplementary Figure S1) and could be described by the following equation: NSB = 0.47−0.16×ln(UF) (3) Where NSB corresponds to the non-specific binding (%) and UF to PMB concentrations in ultrafiltrates (mg/L). Equation 3 was used to correct ultrafiltrates concentrations, as follows: Unbound concentrations = UF/1−NSB (4)

A. baumannii (CS01) = experiment: In vivo PKPD model of PMB bactericidal effect and inoculum effect; design: species or system Acinetobacter baumannii; conditions: for mean IK-HL (initial killing half-life): mean over PMB concentrations; for kslope (kill rate constant due to PMB): model predicted
Description: A PKPD model was developed in two steps to quantify the exposure-effect relationship of PMB in infected mice. First, time courses of total and unbound PMB concentrations were modeled and then, PK parameters were fixed during development of the PD part of the PKPD model.
The structural model for the bacterial population included one compartment representing drug-susceptible growing bacteria. A logistic function was used to model the self-limiting growth observed in vivo: dB/dt= knet×(1−B/Bmax)×B (1) Where, B (CFU/thigh) is the drug-susceptible bacterial population, knet (h^−1) is the apparent (net) growth rate constant and Bmax (CFU/thigh) the maximum bacterial count reached in the tissue. The residual error was additive on a log10 scale for bacterial counts (log10 CFU/thigh).
Predicted unbound plasma concentrations were linked to the bacterial sub-model using a mathematical function to characterize PMB antimicrobial effect (kPMB) such as: dB/dt= knet×(1−B/Bmax)×B − kPMB×B (2) Where multiple functions (linear, power, basic Emax or a sigmoidal Emax function) for kPMB were tested.
Empirical mathematical functions (i.e. linear, exponential and power) describing the relationship between kPMB and inoculum size were tested as a way to include the impact of inoculum size on PMB bactericidal activity.”
Model selection was based on objective function value (OFV) and goodness of fit (GOF) plots. When two models were nested, a decrease in OFV of at least 3.84 (chi square 1df p = 0.05) was needed to select the most complex model. Visual predictive checks (VPCs) based on 1,000 simulations were drawn after stratification on the PMB dose and the starting inoculum to evaluate the predictive performance of the model and were taken into account for model selection. Data below the LOQ were taken into account during parameter estimation by applying Beal’s M3 method ([Beal, 2001]). Parameter estimation was performed using NONMEM software (ICON, Dublin, Ireland) version 7.4.2 using the LAPLACIAN algorithm. Uncertainty around population parameters was estimated using the sampling importance resampling (SIR) technique ([Dosne et al., 2016]).
To evaluate the impact of outliers on parameter estimates and model-based inferences, a sensitivity analysis was performed. Briefly, model estimation was performed with the complete dataset and with a reduced dataset excluding outliers. Parameter estimates were compared and simulations of expected bacterial counts for all tested experimental conditions (i.e. all inocula and dosing regimens) were performed with the two parameter estimate sets.
The time course of bacterial counts was adequately described by the model depicted on Figure 1. VPCs of the final model are shown on Figure 3 and GOF plots on Supplementary Figure S4. PMB bactericidal effect (kPMB) was best described by a power function: kPMB = kslope × Cuγ (5) Where kslope corresponds to the kill rate constant due to PMB (L/mg.h), Cu the unbound PMB concentration (mg/L) and γ , the power parameter for PMB effect.
The inoculum effect was incorporated in the model as a decrease of kslope with increasing theoretical starting inoculum using a linear function: kslope=kslope,med +kinoc×(starting inoculum−6) (6) Where kslope,med is the kill rate constant for a theoretical starting inoculum of 6 log10 CFU/thigh corresponding to the median of the starting inoculum tested in the present study (5, 6 or 7 log10 CFU/thigh) and kinoc is the constant describing the inoculum effect on kslope.

CC[C@H](C)CCCCC(=O)N[C@@H](CCN)C(=O)N[C@H](C(=O)N[C@@H](CCN)C(=O)N[C@H]1CCNC(=O)[C@H]([C@@H](C)O)NC(=O)[C@H](CCN)NC(=O)[C@H](CCN)NC(=O)[C@H](CC(C)C)NC(=O)[C@@H](Cc2ccccc2)NC(=O)[C@H](CCN)NC1=O)[C@@H](C)O [PMB, Polymyxin B sulfate] (X1-[Dab]T[Dab][Dab][Dab][dF]L[Dab][Dab]T; lactam 4-C)
fraction unbound ([1]; male, Swiss RjOrl, sc, infected mice, ultrafiltration 4000 rpm 30 min room temperature, corrected for non-specific binding to membrane, LC-MS/MS, model estimate (%RSE)): 0.166
unbound fraction ([1]; infected mice, ultrafiltration corrected for non-specific binding, model estimate): 17%
plasma protein binding ([1]; ultrafiltration, this study): ~80%
mean IK-HL higher at 10^7 CFU/thigh compared with 10^5 CFU/thigh inoculum (A. baumannii (CS01); in vivo): 48%
mean IK-HL (initial killing half-life) (A. baumannii (CS01); in vivo, inoculum 10^5 CFU/thigh): 32.4 min
mean IK-HL (initial killing half-life) (A. baumannii (CS01); in vivo, inoculum 10^7 CFU/thigh): 48 min
kslope (kill rate constant due to PMB) (A. baumannii (CS01); starting inoculum 5 log10 CFU/thigh): 19800 µL/min/mg
kslope (kill rate constant due to PMB) (A. baumannii (CS01); starting inoculum 7 log10 CFU/thigh): 13500 µL/min/mg
decrease in the in vivo PMB bactericidal effect (A. baumannii (CS01); starting inoculum increases from 10^5 to 10^7 CFU/thigh): 32%
change of kslope (A. baumannii (CS01); starting inoculum increasing from 5 to 7 log10 CFU/thigh): −32%
Model derived initial killing half-life (A. baumannii (CS01); unbound PMB 0.5 mg/L, inoculum 10^5 CFU/thigh): 39 min
Model derived initial killing half-life (A. baumannii (CS01); unbound PMB 0.5 mg/L, inoculum 10^6 CFU/thigh): 47 min
Model derived initial killing half-life (A. baumannii (CS01); unbound PMB 0.5 mg/L, inoculum 10^7 CFU/thigh): 58 min
Model derived initial killing half-life (A. baumannii (CS01); unbound PMB 1 mg/L, inoculum 10^5 CFU/thigh): 35 min
Model derived initial killing half-life (A. baumannii (CS01); unbound PMB 1 mg/L, inoculum 10^6 CFU/thigh): 42 min
Model derived initial killing half-life (A. baumannii (CS01); unbound PMB 1 mg/L, inoculum 10^7 CFU/thigh): 52 min
Model derived initial killing half-life (A. baumannii (CS01); unbound PMB 2 mg/L, inoculum 10^5 CFU/thigh): 31 min
Model derived initial killing half-life (A. baumannii (CS01); unbound PMB 2 mg/L, inoculum 10^6 CFU/thigh): 37 min
Model derived initial killing half-life (A. baumannii (CS01); unbound PMB 2 mg/L, inoculum 10^7 CFU/thigh): 46 min
Model derived initial killing half-life (A. baumannii (CS01); unbound PMB 3 mg/L, inoculum 10^5 CFU/thigh): 29 min
Model derived initial killing half-life (A. baumannii (CS01); unbound PMB 3 mg/L, inoculum 10^6 CFU/thigh): 35 min
Model derived initial killing half-life (A. baumannii (CS01); unbound PMB 3 mg/L, inoculum 10^7 CFU/thigh): 43 min
Model derived initial killing half-life (A. baumannii (CS01); unbound PMB 4 mg/L, inoculum 10^5 CFU/thigh): 28 min
Model derived initial killing half-life (A. baumannii (CS01); unbound PMB 4 mg/L, inoculum 10^6 CFU/thigh): 33 min
Model derived initial killing half-life (A. baumannii (CS01); unbound PMB 4 mg/L, inoculum 10^7 CFU/thigh): 41 min

Source: PMC8966651, “PKPD Modeling of the Inoculum Effect of Acinetobacter baumannii on Polymyxin B in vivo” (Frontiers in Pharmacology, 2022)
